In patent US20090047246A1, “NOVEL INHIBITORS OF HEPATITIS C VIRUS REPLICATION” (InterMune, Inc., priority 2007, published 2009):
pIC50: −log10 of the molar value. Read-outs that look alike come from different tables or passages of the source.

Target: T1, HCV NS3 helicase (Hepatitis C virus genotype 1b, UniProt P26663)
T1 construct: full-length NS3 (1-631), purified at Array BioPharma
Test: HCV Helicase Prompt FRET Assay (Example A)
Format: biochemical
Details: read-out: IC50 Activity
Method in brief: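 Initial unwinding rates, monitored as FAM fluorescence gain (ex 485, em 535) over ~30 min at room temperature, gave IC50 via 4- or 5-parameter logistic fits. Reactions: 50 nM quenched duplex, 250 nM capture strand, 300 μM ATP, 5–6 nM NS3 1-631 after 5 min compound preincubation, MOPS pH 7.0 buffer, 2% DMSO.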

[1] = Table 31, compounds made using Schemes 38-45
[2] = Table 32, compounds made using Schemes 46-49
[3] = Table 33, compounds made using Scheme 50
[4] = Table 34, compounds made using Schemes 51-52
[5] = Table 35, compounds made using Scheme 53
[6] = Table 36, compounds made using Scheme 54

T1 sequence (P26663 1027-1657): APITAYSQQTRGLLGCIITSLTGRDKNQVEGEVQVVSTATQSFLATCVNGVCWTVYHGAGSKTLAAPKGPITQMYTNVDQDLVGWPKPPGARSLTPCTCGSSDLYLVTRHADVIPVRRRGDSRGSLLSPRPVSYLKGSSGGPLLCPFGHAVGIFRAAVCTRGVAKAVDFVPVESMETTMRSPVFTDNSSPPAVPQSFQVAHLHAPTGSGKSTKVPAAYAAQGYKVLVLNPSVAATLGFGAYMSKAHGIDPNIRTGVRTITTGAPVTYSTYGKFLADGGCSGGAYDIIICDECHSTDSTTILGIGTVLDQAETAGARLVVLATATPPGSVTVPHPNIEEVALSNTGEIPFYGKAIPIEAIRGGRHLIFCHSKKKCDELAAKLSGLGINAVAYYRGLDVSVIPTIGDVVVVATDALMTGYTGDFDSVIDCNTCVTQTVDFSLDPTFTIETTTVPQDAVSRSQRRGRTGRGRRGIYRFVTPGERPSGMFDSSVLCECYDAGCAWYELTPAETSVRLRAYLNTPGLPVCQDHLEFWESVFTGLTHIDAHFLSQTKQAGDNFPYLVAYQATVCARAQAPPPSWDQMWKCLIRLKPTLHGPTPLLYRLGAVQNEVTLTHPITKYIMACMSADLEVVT

SMILES: Nc1nc(-c2ccc3c(CC(=O)O)cn(Cc4csc5ccc(Cl)cc45)c3c2)ncc1F [Example 633]
- pIC50 [1]: 4.30 to 5.00

SMILES: Nc1cc(N)nc(-c2ccc3c(CC(=O)O)cn(Cc4csc5ccc(Cl)cc45)c3c2)n1 [Example 635]
- pIC50 [1]: 4.30 to 5.00

SMILES: Nc1nc(Cl)cc(-c2ccc3c(CC(=O)O)cn(Cc4csc5ccc(Cl)cc45)c3c2)n1 [Example 636]
- pIC50 [1]: > 5.00

SMILES: Nc1nc(Cl)c(C=O)c(-c2ccc3c(CC(=O)O)cn(Cc4csc5ccc(Cl)cc45)c3c2)n1 [Example 637]
- pIC50 [1]: > 5.00

SMILES: Nc1cc(-c2ccc3c(CC(=O)O)cn(Cc4csc5ccc(Cl)cc45)c3c2)cc(N)n1 [Example 638]
- pIC50 [1]: 4.30 to 5.00

SMILES: Nc1nc(-c2ccc3c(CC(=O)O)cn(Cc4csc5ccc(Cl)cc45)c3c2)c2nc[nH]c2n1 [Example 639]
- pIC50 [1]: 4.30 to 5.00

SMILES: CNc1nc(-c2ccc3c(CC(=O)O)cn(Cc4csc5ccc(Cl)cc45)c3c2)nc2[nH]cnc12 [Example 640]
- pIC50 [1]: > 5.00

SMILES: NC(=O)c1ccc(N)cc1-c1ccc2c(CC(=O)O)cn(Cc3csc4ccc(Cl)cc34)c2c1 [Example 641]
- pIC50 [1]: 4.30 to 5.00

SMILES: COC(=O)c1ccc(N)cc1-c1ccc2c(CC(=O)O)cn(Cc3csc4ccc(Cl)cc34)c2c1 [Example 642]
- pIC50 [1]: > 5.00

SMILES: CNc1cc(NC)cc(-c2ccc3c(CC(=O)O)cn(Cc4csc5ccc(Cl)cc45)c3c2)c1 [Example 646]
- pIC50 [1]: > 5.00

SMILES: CNc1cc(N)cc(-c2ccc3c(CC(=O)O)cn(Cc4csc5ccc(Cl)cc45)c3c2)c1 [Example 647]
- pIC50 [1]: > 5.00

SMILES: CC(=O)Nc1cc(NC(C)=O)cc(-c2ccc3c(CC(=O)O)cn(Cc4csc5ccc(Cl)cc45)c3c2)c1 [Example 648]
- pIC50 [1]: > 5.00

SMILES: CC(C)Nc1cc(NC(C)C)cc(-c2ccc3c(CC(=O)O)cn(Cc4csc5ccc(Cl)cc45)c3c2)c1 [Example 649]
- pIC50 [1]: > 5.00

SMILES: CC(C)Nc1cc(N)cc(-c2ccc3c(CC(=O)O)cn(Cc4csc5ccc(Cl)cc45)c3c2)c1 [Example 650]
- pIC50 [1]: > 5.00

SMILES: Nn1cc(-c2ccc3c(CC(=O)O)cn(Cc4csc5ccc(Cl)cc45)c3c2)c(=O)n(N)c1=O [Example 651]
- pIC50 [1]: < 4.30

SMILES: Nn1c(=O)[nH]cc(-c2ccc3c(CC(=O)O)cn(Cc4csc5ccc(Cl)cc45)c3c2)c1=O [Example 652]
- pIC50 [1]: 4.30 to 5.00

SMILES: Nn1cc(-c2ccc3c(CC(=O)O)cn(Cc4csc5ccc(Cl)cc45)c3c2)c(=O)[nH]c1=O [Example 653]
- pIC50 [1]: 4.30 to 5.00

SMILES: NC(=O)c1nc(N)sc1-c1ccc2c(CC(=O)O)cn(Cc3csc4ccc(Cl)cc34)c2c1 [Example 654]
- pIC50 [2]: > 5.00

SMILES: NC(=O)c1nc(N)sc1-c1ccc2c(CC(=O)O)cn(Cc3csc4ccc(Cl)cc34)c2c1 [Example 655]
- pIC50 [2]: 4.30 to 5.00

SMILES: Nc1ncc(-c2ccc3c(CC(=O)O)cn(Cc4csc5ccc(Cl)cc45)c3c2)s1 [Example 656]
- pIC50 [2]: 4.30 to 5.00

SMILES: CC(C)(C)OC(=O)Nc1ncc(-c2ccc3c(CC(=O)O)cn(Cc4csc5ccc(Cl)cc45)c3c2)s1 [Example 657]
- pIC50 [2]: > 5.00

SMILES: CC(C)(C)OC(=O)Nc1nnc(-c2ccc3c(CC(=O)O)cn(Cc4csc5ccc(Cl)cc45)c3c2)s1 [Example 658]
- pIC50 [2]: > 5.00

SMILES: CC(C)(C)OC(=O)Nc1nnc(-c2ccc3c(CC(=O)O)cn(Cc4csc5ccc(Cl)cc45)c3c2)s1 [Example 659]
- pIC50 [2]: 4.30 to 5.00

SMILES: Nc1nnc(-c2ccc3c(CC(=O)O)cn(Cc4csc5ccc(Cl)cc45)c3c2)s1 [Example 660]
- pIC50 [2]: 4.30 to 5.00

SMILES: NC(=O)c1sccc1-c1ccc2c(CC(=O)O)cn(Cc3csc4ccc(Cl)cc34)c2c1 [Example 661]
- pIC50 [2]: 4.30 to 5.00

SMILES: O=C(O)Cc1cn(Cc2csc3ccc(Cl)cc23)c2cc(-c3c[nH]c(=O)[nH]c3=O)ccc12 [Example 662]
- pIC50 [2]: 4.30 to 5.00

SMILES: N#Cc1ccc2c(CC(=O)O)cn(Cc3csc4ccc(Cl)cc34)c2c1 [Example 663]
- pIC50 [2]: 4.30 to 5.00

SMILES: CC(C)c1ccc(Cn2c(C#N)c(CC(=O)O)c3ccccc32)cc1 [Example 664]
- pIC50 [2]: 4.30 to 5.00

SMILES: CC(C)c1ccc(Cn2c(C(N)=O)c(CC(=O)O)c3ccccc32)cc1 [Example 665]
- pIC50 [2]: 4.30 to 5.00

SMILES: Nc1cc(-c2ccc3c(CC(=O)O)cn(Cc4csc5ccc(Cl)cc45)c3c2)ncn1 [Example 666]
- pIC50 [3]: 4.30 to 5.00

SMILES: Nc1ccnc(-c2ccc3c(CC(=O)O)cn(Cc4csc5ccc(Cl)cc45)c3c2)n1 [Example 667]
- pIC50 [3]: 4.30 to 5.00

SMILES: O=C(O)Cc1cn(Cc2csc3ccc(Cl)cc23)c2cc(-c3ccc4nc[nH]c4c3)ccc12 [Example 668]
- pIC50 [3]: 4.30 to 5.00

SMILES: O=C(O)Cc1cn(Cc2csc3ccc(Cl)cc23)c2cc(-c3ccc4nn[nH]c4c3)ccc12 [Example 669]
- pIC50 [3]: 4.30 to 5.00

SMILES: Cc1cc([N+](=O)[O-])ccc1-n1cc(C(NC(=O)c2ccccc2)C(=O)O)c2ccccc21 (stereo not shown) [Example 670]
- pIC50 [4]: 4.30 to 5.00

SMILES: Cc1cc([N+](=O)[O-])ccc1-n1cc(C(NC(=O)C2CCCN2C(=O)OC(C)(C)C)C(=O)O)c2ccccc21 (stereo not shown) [Example 671]
- pIC50 [4]: 4.30 to 5.00

SMILES: Cc1cc([N+](=O)[O-])ccc1-n1cc(C(NC(=O)C2CCCN2)C(=O)O)c2ccccc21 (stereo not shown) [Example 672]
- pIC50 [4]: < 4.30

SMILES: Cc1cc([N+](=O)[O-])ccc1-n1cc(C(NC(=O)C2CCN(C(=O)OC(C)(C)C)CC2)C(=O)O)c2ccccc21 (stereo not shown) [Example 673]
- pIC50 [4]: 4.30 to 5.00

SMILES: Cc1cc([N+](=O)[O-])ccc1-n1cc(C(NC(=O)C2CCNCC2)C(=O)O)c2ccccc21 (stereo not shown) [Example 674]
- pIC50 [4]: < 4.30

SMILES: Cn1cc(CC(=O)O)c2ccc(-c3cc(N)cc(N)c3)cc21 [Example 675]
- pIC50 [4]: < 4.30

SMILES: Nc1cc(N)cc(-c2ccc3c(CC(=O)O)cn(Cc4ccccc4)c3c2)c1 [Example 676]
- pIC50 [4]: 4.30 to 5.00

SMILES: CC(C)c1ccc(Cn2cc(CC(=O)NO)c3ccccc32)cc1 [Example 677]
- pIC50 [4]: 4.30 to 5.00

SMILES: O=C(O)Cc1cn(Cc2csc3ccccc23)c2ccc(Br)cc12 [Example 678]
- pIC50 [4]: 4.30 to 5.00

SMILES: Nc1cc(N)cc(-c2ccc3c(CC(=O)O)cn(Cc4csc5ccccc45)c3c2)c1 [Example 679]
- pIC50 [4]: > 5.00

SMILES: Nc1cc(N)cc(-c2ccc3c(CC(=O)NOCc4ccccc4)cn(Cc4csc5ccc(Cl)cc45)c3c2)c1 [Example 680]
- pIC50 [4]: > 5.00

SMILES: CC(C)(C)ONC(=O)Cc1cn(Cc2csc3ccc(Cl)cc23)c2cc(-c3cc(N)cc(N)c3)ccc12 [Example 683]
- pIC50 [4]: 4.30 to 5.00

SMILES: CC(C)c1ccc(Cn2cc(C(Cc3ccccc3)C(=O)NO)c3cc(Br)ccc32)cc1 (stereo not shown) [Example 684]
- pIC50 [4]: > 5.00

SMILES: CC(C)c1ccc(CC(C(=O)O)c2cn(Cc3ccc(C(C)C)cc3)c3ccc(Br)cc23)cc1 (stereo not shown) [Example 685]
- pIC50 [4]: > 5.00

SMILES: CC(C)c1ccc(Cn2cc(C(Cc3ccccc3)C(=O)NS(=O)(=O)C3CC3)c3cc(Br)ccc32)cc1 (stereo not shown) [Example 686]
- pIC50 [4]: > 5.00

SMILES: Nc1cc(-c2ccc3c(CC(=O)NS(=O)(=O)C4CC4)cn(Cc4csc5ccc(Cl)cc45)c3c2)cc([N+](=O)[O-])c1 [Example 687]
- pIC50 [4]: > 5.00

SMILES: Nc1cc(N)cc(-c2ccc3c(CC(=O)NS(=O)(=O)C4CC4)cn(Cc4csc5ccc(Cl)cc45)c3c2)c1 [Example 688]
- pIC50 [4]: > 5.00

SMILES: Nc1cc(-c2ccc3c(CC(=O)NOCc4ccccc4)cn(Cc4csc5ccc(Cl)cc45)c3c2)cc([N+](=O)[O-])c1 [Example 689]
- pIC50 [4]: < 4.30

SMILES: Nc1cc(-c2ccc3c(CC(=O)NOC4CCCCO4)cn(Cc4csc5ccc(Cl)cc45)c3c2)cc([N+](=O)[O-])c1 (stereo not shown) [Example 690]
- pIC50 [4]: < 4.30

SMILES: Nc1cc(-c2ccc3c(CC(=O)NO)cn(Cc4csc5ccc(Cl)cc45)c3c2)cc([N+](=O)[O-])c1 [Example 691]
- pIC50 [4]: 4.30 to 5.00

SMILES: Nc1cc(N)cc(-c2ccc3c(CC(=O)NO)cn(Cc4csc5ccc(Cl)cc45)c3c2)c1 [Example 692]
- pIC50 [4]: 4.30 to 5.00

SMILES: COC(=O)C(=O)c1cn(Cc2csc3ccc(Cl)cc23)c2cc(Br)ccc12 [Example 693]
- pIC50 [4]: < 4.30

SMILES: OCCc1cn(Cc2csc3ccc(Cl)cc23)c2cc(Br)ccc12 [Example 694]
- pIC50 [4]: < 4.30

SMILES: CC(=O)OC1CCCN(c2ccc3ccn(Cc4csc5ccc(Cl)cc45)c3c2)C1 (stereo not shown) [Example 695]
- pIC50 [4]: 4.30 to 5.00

SMILES: COC(=O)C(=O)c1cn(Cc2csc3ccc(Cl)cc23)c2cc(N3CCCC(OC(C)=O)C3)ccc12 (stereo not shown) [Example 696]
- pIC50 [4]: 4.30 to 5.00

SMILES: COC(=O)Cc1cn(Cc2csc3ccc(Cl)cc23)c2cc(N3CCCC(OC(C)=O)C3)ccc12 (stereo not shown) [Example 697]
- pIC50 [4]: < 4.30

SMILES: Nc1cc(N)cc(-c2ccc3c(CC(=O)O)cn(Cc4csc5ccc(N)cc45)c3c2)c1 [Example 702]
- pIC50 [5]: 4.30 to 5.00

SMILES: N#Cc1ccc2scc(Cn3cc(CC(=O)O)c4ccc(-c5cc(N)cc(N)c5)cc43)c2c1 [Example 703]
- pIC50 [5]: 4.30 to 5.00

SMILES: Cc1ccc2c(Cn3cc(CC(=O)O)c4ccc(-c5cc(N)cc(N)c5)cc43)cccc2n1 [Example 704]
- pIC50 [5]: < 4.30

SMILES: Nc1cc(N)cc(-c2ccc3c(CC(=O)O)cn(Cc4csc5ccc(F)cc45)c3c2)c1 [Example 705]
- pIC50 [5]: > 5.00

SMILES: Cc1nn(-c2ccccc2)nc1Cn1cc(CC(=O)O)c2ccc(-c3cc(N)cc(N)c3)cc21 [Example 706]
- pIC50 [5]: 4.30 to 5.00

SMILES: Nc1cc(N)cc(-c2ccc3c(CC(=O)O)cn(Cc4cccc5sc(O)nc45)c3c2)c1 [Example 708]
- pIC50 [5]: 4.30 to 5.00

SMILES: Nc1cc(N)cc(-c2ccc3c(CC(=O)O)cn(Cc4cccc(-c5cccc(Cl)c5)c4)c3c2)c1 [Example 709]
- pIC50 [5]: 4.30 to 5.00

SMILES: Nc1cc(N)cc(-c2ccc3c(CC(=O)O)cn(Cc4cc5cc(Cl)ccc5s4)c3c2)c1 [Example 710]
- pIC50 [5]: > 5.00

SMILES: CCOC(=O)Cc1cn(Cc2c(-c3ccccc3)sc3ccccc23)c2cc(-c3cc([N+](=O)[O-])cc([N+](=O)[O-])c3)ccc12 [Example 711]
- pIC50 [6]: 4.30 to 5.00

SMILES: CCOC(=O)Cc1cn(Cc2c(-c3ccccc3)sc3ccccc23)c2cc(-c3cc(N)cc(N)c3)ccc12 [Example 712]
- pIC50 [6]: > 5.00

SMILES: Nc1cc(N)cc(-c2ccc3c(CC(=O)O)cn(Cc4c(-c5ccccc5)sc5ccccc45)c3c2)c1 [Example 713]
- pIC50 [6]: > 5.00
